Where two headings read alike, the source gives them in different places.

Assay [1] relates to GFP-eIF2α in HEK293 cells. Briefly: PERK cellular assay, TR-FRET in HEK293-EGFP-eIF2a cells after tunicamycin-induced ER stress. It counts as cell-based. The note with it: HEK293-EGFP-eIF2a cells, tunicamycin 2 hours, read-out: Cellular eIF2α IC50. Put shortly:
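HEK293 cells stably expressing GFP-eIF2α, plated 5000 cells/well overnight, pretreated with inhibitors 30 min at 37 °C, then ER stress induced with tunicamycin […] for 2 h.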

For assay [2], the target named is T1, EIF2AK3 (PERK) catalytic domain (amino acids 536-1116) (Homo sapiens, UniProt Q9NZJ5).
T1 construct: EIF2AK3 (PERK) catalytic domain (amino acids 536-1116)
T1 sequence (Q9NZJ5 536-1116): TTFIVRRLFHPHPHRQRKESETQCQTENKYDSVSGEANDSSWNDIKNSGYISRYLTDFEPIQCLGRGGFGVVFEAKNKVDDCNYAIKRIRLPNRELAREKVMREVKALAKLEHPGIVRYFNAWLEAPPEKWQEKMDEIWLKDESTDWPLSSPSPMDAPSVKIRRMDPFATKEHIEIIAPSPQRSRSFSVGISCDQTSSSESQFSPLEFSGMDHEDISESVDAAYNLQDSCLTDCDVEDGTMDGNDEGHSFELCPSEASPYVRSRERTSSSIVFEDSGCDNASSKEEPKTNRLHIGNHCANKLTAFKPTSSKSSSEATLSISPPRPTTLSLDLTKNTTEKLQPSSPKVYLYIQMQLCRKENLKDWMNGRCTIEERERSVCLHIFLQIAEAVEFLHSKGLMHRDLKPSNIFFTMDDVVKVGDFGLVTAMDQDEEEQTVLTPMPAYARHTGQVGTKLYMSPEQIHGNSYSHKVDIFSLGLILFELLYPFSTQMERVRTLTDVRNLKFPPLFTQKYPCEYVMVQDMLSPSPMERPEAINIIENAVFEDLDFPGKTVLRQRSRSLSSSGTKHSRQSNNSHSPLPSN
The experiment in a line: PERK in vitro activity assay (isolated), TR-FRET kinase assay. It is filed as biochemical. As to conditions: isolated PERK enzyme, 1.5 μM ATP; read-out: Biochemical IC50. Put shortly: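 Human PERK catalytic domain (aa 536-1116) phosphorylating 100-200 nM GFP-eIF2a in 50 mM HEPES pH 7.5, 10 mM MgCl2, 1 mM EGTA, 0.01% Brij-35; enzyme-started, 45 min at room temperature. Stopped with 10 mM EDTA, 2 nM Tb-anti-phospho-eIF2a added for 90 min; IC50 from TR-FRET ratios by 4-parameter logistic fit.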

As for `Cc1nc(N)c2c(-c3ccc(NC(=O)C(O)c4cccc(C(F)(F)F)c4)nc3C)cn(C)c2n1` (stereo not shown) [Example 129, N-(5-(4-amino-2,7-dimethyl-7H-pyrrolo[2,3-d]pyrimidin-5-yl)-6-methylpyridin-2-yl)-2-hydroxy-2-(3-(trifluoromethyl)phenyl)acetamide], the IC50 was 0.051 to 0.1 µM in assay [1] and 0.001 to 0.025 µM in assay [2].
For the compound `Cc1nc(N)c2c(-c3ccc(NC(=O)C(O)c4cccc(C(F)(F)F)c4)cc3F)cn(C)c2n1` (stereo not shown) [Example 78, N-(4-(4-amino-2,7-dimethyl-7H-pyrrolo[2,3-d]pyrimidin-5-yl)-3-fluorophenyl)-2-hydroxy-2-(3-(trifluoromethyl)phenyl)acetamide], the IC50 in assay [1] (Homo sapiens, HEK293, 2 h) is 0.001 to 0.025 µM; in assay [2] it was 0.001 to 0.025 µM.
On to `COc1ccc(CC(=O)Nc2ccc(-c3cn(C)c4ncnc(N)c34)c(C)c2)cc1` [Example 141, N-(4-(4-amino-7-methyl-7H-pyrrolo[2,3-d]pyrimidin-5-yl)-3-methylphenyl)-2-(4-methoxyphenyl)acetamide], for which the IC50 in assay [1] (Homo sapiens, HEK293, 2 h) lay in the range of 0.251 to 0.5 µM; in assay [2] it was 0.051 to 0.1 µM.
Turning to `Cc1nc(N)c2c(-c3cnc(NC(=O)C(O)c4cccc(C(F)(F)F)c4)cc3C)cn(C)c2n1` (stereo not shown) [Example 132, N-(5-(4-amino-2,7-dimethyl-7H-pyrrolo[2,3-d]pyrimidin-5-yl)-4-methylpyriidn-2-yl)-2-hydroxy-2-(3-(trifluoromethyl)phenyl)acetamide], the IC50 was in the range of 0.051 to 0.1 µM in assay [1] and 0.001 to 0.025 µM in assay [2].
Taken in the same sequence, the figures for `Cc1nc(N)c2c(-c3ccc(NC(=O)C(O)c4cccc(F)c4)cc3C(F)(F)F)cn(C)c2n1` (stereo not shown) [Example 20, N-(4-(4-amino-2,7-dimethyl-7H-pyrrolo[2,3-d]pyrimidin-5-yl)-3-(trifluoromethyl)phenyl)-2-(3-fluorophenyl)-2-hydroxyacetamide] were 1 to 2 µM and 0.051 to 0.1 µM.
On to `Cc1nc(N)c2c(-c3ccc(NC(=O)C(O)c4cccc(Cl)c4)cc3Cl)cn(C)c2n1` (stereo not shown) [Example 100, N-(4-(4-amino-2,7-dimethyl-7H-pyrrolo[2,3-d]pyrimidin-5-yl)-3-chlorophenyl)-2-(3-chlorophenyl)-2-hydroxyacetamide], for which the IC50 in assay [1] was in the range of 0.101 to 0.25 µM; in assay [2] it was 0.026 to 0.05 µM.
On to `Cc1cc(NC(=O)C(O)c2ccccc2C(F)(F)F)ccc1-c1cn(C)c2ncnc(N)c12` (stereo not shown) [Example 45, N-(4-(4-amino-7-methyl-7H-pyrrolo[2,3-d]pyrimidin-5-yl)-3-methylphenyl)-2-hydroxy-2-(2-(trifluoromethyl)phenyl)acetamide], for which the half-inhibitory concentration (IC50) is 0.101 to 0.25 µM in assay [1] (Homo sapiens, HEK293, 2 h) and 0.001 to 0.025 µM in assay [2].
On to `Cc1cc(NC(=O)CC2CCC2)ccc1-c1cn(C)c2ncnc(N)c12` [Example 164, N-(4-(4-amino-7-methyl-7H-pyrrolo[2,3-d]pyrimidin-5-yl)-3-methylphenyl)-2-cyclobutyl-acetamide], for which the IC50 lay in the range of 2 to 3 µM in assay [1] (Homo sapiens, HEK293, 2 h) and 0.051 to 0.1 µM in assay [2].
As for `Cc1nc(N)c2c(-c3cnc(NC(=O)C(O)c4cccc(F)c4)cc3C)cn(C)c2n1` (stereo not shown) [Example 133, N-(5-(4-amino-2,7-dimethyl-7H-pyrrolo[2,3-d]pyrimidin-5-yl)-4-methylpyridin-2-yl)-2-(3-fluorophenyl)-2-hydroxyacetamide], the IC50 in assay [1] was 4 to 5 µM; in assay [2], 0.251 to 0.5 µM.
Taken in the same sequence, the figures for `Cc1nc(N)c2c(-c3ccc(NC(=O)C(O)c4cccc(C(F)(F)F)c4)c(F)c3F)cn(C)c2n1` (stereo not shown) [Example 107, N-(4-(4-amino-2,7-dimethyl-7H-pyrrolo[2,3-d]pyrimidin-5-yl)-2,3-difluorophenyl)-2-hydroxy-2-(3-(trifluoromethyl)phenyl)acetamide] were 0.001 to 0.025 µM and 0.001 to 0.025 µM.
As to `Cc1nc(N)c2c(-c3ccc(NC(=O)C(O)c4cccc(C(F)(F)F)n4)cc3C)cn(C)c2n1` (stereo not shown) [Example 62, N-(4-(4-amino-2,7-dimethyl-7H-pyrrolo[2,3-d]pyrimidin-5-yl)-3-methylphenyl)-2-hydroxy-2-(6-(trifluoromethyl)pyridin-2-yl)acetamide], the figures for the IC50 in assay [1] and in assay [2] were 2 to 3 µM and 0.051 to 0.1 µM, respectively.
In the case of `Cc1cc(NC(=O)Cc2cccc3cnccc23)ccc1-c1cn(C)c2ncnc(N)c12` [Example 156, N-(4-(4-amino-7-methyl-7H-pyrrolo[2,3-d]pyrimidin-5-yl)-3-methylphenyl)-2-(isoquinolin-5-yl)acetamide], the IC50 lay within 0.251 to 0.5 µM in assay [1] (Homo sapiens, HEK293, 2 h) and 0.051 to 0.1 µM in assay [2].
Consider `Cc1cc(NC(=O)Cc2ccc(C(F)(F)F)cc2)ccc1-c1cn(C)c2ncnc(N)c12` [Example 159, N-(4-(4-amino-7-methyl-7H-pyrrolo[2,3-d]pyrimidin-5-yl)-3-methylphenyl)-2-(4-(trifluoromethyl)phenyl)acetamide], for which the IC50 in assay [1] (Homo sapiens, HEK293, 2 h) fell in the range of 0.501 to 1 µM; in assay [2], 0.051 to 0.1 µM.
`Cc1cc(NC(=O)C(O)c2cccc(F)c2)c(F)cc1-c1cn(C)c2ncnc(N)c12` (stereo not shown) [Example 119, N-(4-(4-amino-7-methyl-7H-pyrrolo[2,3-d]pyrimidin-5-yl)-2-fluoro-5-methylphenyl)-2-(3-fluorophenyl)-2-hydroxyacetamide]: the IC50 in assay [1] and in assay [2] was 0.001 to 0.025 µM each time.
With `Cc1cc(NC(=O)C(O)c2cccc(C(F)(F)F)c2)ccc1-c1cn(C)c2ncnc(N)c12` (stereo not shown) [Example 48, N-(4-(4-amino-7-methyl-7H-pyrrolo[2,3-d]pyrimidin-5-yl)-3-methylphenyl)-2-hydroxy-2-(3-(trifluoromethyl)phenyl)acetamide], the IC50 in assay [1] lay within 0.051 to 0.1 µM; in assay [2], 0.001 to 0.025 µM.
Taken in the same sequence, the figures for `Cc1cc(NC(=O)C(O)c2cccc(C(F)(F)F)c2)ccc1-c1cn(C)c2ncnc(N)c12` (stereo not shown) [Example 47, N-(4-(4-amino-7-methyl-7H-pyrrolo[2,3-d]pyrimidin-5-yl)-3-methylphenyl)-2-hydroxy-2-(3-(trifluoromethyl)phenyl)acetamide] were 0.001 to 0.025 µM and 0.001 to 0.025 µM.
For the compound `Cc1nc(N)c2c(-c3ccc(NC(=O)C(O)c4ccccc4C(F)(F)F)cc3F)cn(C)c2n1` (stereo not shown) [Example 77, N-(4-(4-amino-2,7-dimethyl-7H-pyrrolo[2,3-d]pyrimidin-5-yl)-3-fluorophenyl)-2-hydroxy-2-(2-(trifluoromethyl)phenyl)acetamide], the IC50 in assay [1] (Homo sapiens, HEK293, 2 h) lay within 0.501 to 1 µM; in assay [2] it was 0.026 to 0.05 µM.
For `COc1cc(NC(=O)C(O)c2cccc(F)c2)ccc1-c1cn(C)c2nc(C)nc(N)c12` (single isomer, unassigned) [Example 106, N-(4-(4-amino-2,7-dimethyl-7H-pyrrolo[2,3-d]pyrimidin-5-yl)-3-methoxyphenyl)-2-(3-fluorophenyl)-2-hydroxyacetamide], the IC50 lay within 1 to 2 µM in assay [1] and 0.101 to 0.25 µM in assay [2].
Taken in the same sequence, the figures for `CCc1cccc(C(O)C(=O)Nc2ccc(-c3cn(C)c4nc(C)nc(N)c34)c(C)c2)c1` (stereo not shown) [Example 43, N-(4-(4-amino-2,7-dimethyl-7H-pyrrolo[2,3-d]pyrimidin-5-yl)-3-methylphenyl)-2-(3-ethylphenyl)-2-hydroxyacetamide] were 0.001 to 0.025 µM and 0.001 to 0.025 µM.
As for `Cc1nc(N)c2c(-c3ccc(NC(=O)C(O)c4cc(F)cc(C(F)(F)F)c4)c(F)c3F)cn(C)c2n1` (single isomer, unassigned) [Example 116, N-(4-(4-amino-2,7-dimethyl-7H-pyrrolo[2,3-d]pyrimidin-5-yl)-2,3-difluorophenyl)-2-(3-fluoro-5-(trifluoromethyl)phenyl)-2-hydroxyacetamide], the IC50 in assay [1] and in assay [2] was 0.251 to 0.5 µM in each case.
`Cc1cc(NC(=O)Cc2cncc3ccccc23)ccc1-c1cn(C)c2ncnc(N)c12` [Example 155, N-(4-(4-amino-7-methyl-7H-pyrrolo[2,3-d]pyrimidin-5-yl)-3-methylphenyl)-2-(isoquinolin-4-yl)acetamide]: the IC50 in assay [1] (Homo sapiens, HEK293, 2 h) lay in the range of 0.101 to 0.25 µM; in assay [2], 0.026 to 0.05 µM.
In the case of `Cc1cc(F)cc(C(O)C(=O)Nc2ccc(-c3cn(C)c4nc(C)nc(N)c34)c(C)c2)c1` (stereo not shown) [Example 57, N-(4-(4-amino-2,7-dimethyl-7H-pyrrolo[2,3-d]pyrimidin-5-yl)-3-methylphenyl)-2-(3-fluoro-5-methylphenyl)-2-hydroxyacetamide], the IC50 in assay [1] was 0.101 to 0.25 µM; in assay [2] it was 0.026 to 0.05 µM.
For `Cc1cc(NC(=O)C(O)c2cccc(F)c2)ccc1-c1cn(C)c2nc(C(C)C)nc(N)c12` (stereo not shown) [Example 25, N-(4-(4-amino-2-isopropyl-7-methyl-7H-pyrrolo[2,3-d]pyrimidin-5-yl)-3-methylphenyl)-2-(3-fluorophenyl)-2-hydroxyacetamide], the IC50 is more than 5 µM in assay [1] (Homo sapiens, HEK293, 2 h) and 0.101 to 0.25 µM in assay [2].

The record behind these values is patent publication US20220356186A1, “PERK INHIBITING PYRROLOPYRIMIDINE COMPOUNDS” (HiberCell, Inc., priority 2019, published 2022).
